Data on 22 compounds can be found in patent US20230391786A1, “cGAS INHIBITORS” (Eli Lilly and Company, priority 2022, published 2023).

One test concerns the target recombinant human cGAS (Homo sapiens (Human), UniProt Q8N884). The test can be described thus: In vitro inhibition assay of cGAS activity (cGAMP production, RapidFire mass spectrometry). Conditions: 10 nM recombinant human cGAS, 60 nM 75-bp dsDNA, ATP, GTP, room temperature 3 hours, read-out: IC50 (μM), In vitro inhibition assay for Compounds 95-348. The test is classed as biochemical. The gist of the method:
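Product cGAMP was quantified by RapidFire MS against a difluoro-cGAMP internal standard after a formic acid quench. The reaction contained 10 nM recombinant full-length human cGAS, 75-bp dsDNA (60 nM), ATP and GTP (50 μM) and ran for 3 h at room temperature. IC50 values came from 4-parameter nonlinear regression.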

Test [1] relates to cGAS activity in THP1 cells (IFNb as marker). The test can be described thus: Cellular assay to measure cGAS activity (IFNb production in PMA-differentiated THP1 cells stimulated by RDG-Adenovirus-GFP). It counts as cell-based, human. The conditions noted are these: Homo sapiens, THP-1, THP1 cells, PMA differentiated, RDG-Adenovirus-GFP 1000 MOI, IFNb AlphaLISA, overnight incubation; read-out: IC50 (μM), Cellular assay for Compounds 95-348. How it is done: Cellular assay to measure cGAS activity: Use THP1 cell line from ATCC to determine inhibition of cGAS activity by test compounds in human cells. Plate cells on 96-well plates at 0.2×10^6/well and differentiate with phorbol myristate acetate (PMA) at 37° C./5% CO2. After 24 hours, replace PMA containing media with media lacking PMA and further incubate overnight. Stimulate cells were then by RDG-Adenovirus-GFP (Vector Biolabs #1768) at 1000 MOI for 4 hours prior to the addition of test compounds. After overnight incubation, transfer 10 μL of the media from each well to a new plate for IFNb analysis as a marker for cGAS activity. Measure quantification of IFNb with an IFNb AlphaLISA Detection kit (Perkin Elmer AL3133F) by mixing the acceptor beads with the cell supernatant followed by the addition of the biotinylated antibody and donor beads. Measure the relative fluorescence signal produced from the interaction of the donor and acceptor beads by a PHERAStar AlphaLISA protocol and evaluate the inhibitory effect of a compound by plotting specific inhibition of IFNb production against log concentration of the test compound. Calculate IC50 values using a 4-parameter non-linear logistic equation (y=(S0+((SInf−S0)/(1+((qAC50/x)^nHill))))).

Structures are written as SMILES.

Sequence of recombinant human cGAS (Q8N884 whole entry): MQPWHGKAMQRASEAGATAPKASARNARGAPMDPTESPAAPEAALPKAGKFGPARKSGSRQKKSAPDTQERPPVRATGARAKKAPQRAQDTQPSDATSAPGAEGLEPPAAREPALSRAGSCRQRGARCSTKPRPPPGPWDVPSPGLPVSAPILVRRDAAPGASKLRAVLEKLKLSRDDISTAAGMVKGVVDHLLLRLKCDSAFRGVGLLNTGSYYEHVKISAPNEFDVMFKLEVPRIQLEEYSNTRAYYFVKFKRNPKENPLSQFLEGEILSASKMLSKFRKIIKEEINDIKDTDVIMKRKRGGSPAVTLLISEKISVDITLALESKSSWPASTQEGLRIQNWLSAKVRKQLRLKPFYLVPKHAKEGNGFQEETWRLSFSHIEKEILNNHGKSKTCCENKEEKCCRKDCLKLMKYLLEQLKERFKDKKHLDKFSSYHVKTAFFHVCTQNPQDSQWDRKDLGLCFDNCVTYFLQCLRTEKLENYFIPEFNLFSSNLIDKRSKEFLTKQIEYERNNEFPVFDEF

As to `CC(=O)NCC(=O)NC1CCc2c(-c3cn[nH]c3)c3ccc(Cl)c(Cl)c3n2C1` (centres unmarked) [Example 107, 2-Acetamido-N-[3,4-dichloro-10-(1H-pyrazol-4-yl)-6,7,8,9-tetrahydropyrido[1,2-a]indol-7-yl]acetamide], the IC50 at recombinant human cGAS stood at 0.0196 µM; in test [1], 5.56 µM.

`O=C(Cn1ccnc1)N1CCn2c(c(-c3cn[nH]c3)c3ccc(Cl)c(Cl)c32)C1` [Example 111, 1-[6,7-Dichloro-10-(1H-pyrazol-4-yl)-3,4-dihydro-1H-pyrazino[1,2-a]indol-2-yl]-2-imidazol-1-yl-ethanone]: the IC50 on recombinant human cGAS is 0.0468 µM; in test [1], over 10 µM.

On to `O=C(Cc1cnccn1)NCc1[nH]c2c(Cl)c(Cl)ccc2c1-c1cn[nH]c1` [Example 112, N-((6,7-Dichloro-3-(1H-pyrazol-4-yl)-1H-indol-2-yl)methyl)-2-(pyrazin-2-yl)acetamide], for which the IC50 at recombinant human cGAS is 0.0361 µM; in test [1], 1.56 µM.

For the compound `CN(C)C(=O)CCC(=O)N1CCn2c(c(-c3cn[nH]c3)c3c(OCC#N)cc(Cl)c(Cl)c32)C1` [Example 113, 4-[6,7-Dichloro-9-(cyanomethoxy)-10-(1H-pyrazol-4-yl)-3,4-dihydro-1H-pyrazino[1,2-a]indol-2-yl]-N,N-dimethyl-4-oxo-butanamide], the figures for the concentration for half-maximal inhibition (IC50) (on recombinant human cGAS; in test [1]) were 0.018 µM and 3.46 µM, respectively.

For `CN1CCOC[C@@H]1CC(=O)N1CCn2c(c(-c3cn[nH]c3)c3c(OCC#N)cc(Cl)c(Cl)c32)C1` [Example 114, (S)-2-((6,7-Dichloro-2-(2-(4-methylmorpholin-3-yl)acetyl)-10-(1H-pyrazol-4-yl)-1,2,3,4-tetrahydropyrazino[1,2-a]indol-9-yl)oxy)acetonitrile], the half-maximal inhibitory concentration (IC50) at recombinant human cGAS amounted to 0.0244 µM; in test [1] it was 1.53 µM.

Regarding `CN1CCOC[C@H]1CC(=O)N1CCn2c(c(-c3cn[nH]c3)c3c(OCC#N)cc(Cl)c(Cl)c32)C1` [Example 115, (R)-2-((6,7-Dichloro-2-(2-(4-methylmorpholin-3-yl)acetyl)-10-(1H-pyrazol-4-yl)-1,2,3,4-tetrahydropyrazino[1,2-a]indol-9-yl)oxy)acetonitrile], the IC50 on recombinant human cGAS came out at 0.0288 µM; in test [1], 1.12 µM.

For `CC(=O)NC1CCCn2c1c(-c1cn[nH]c1)c1ccc(Cl)c(Cl)c12` (centres unmarked) [Example 116, N-(3,4-Dichloro-10-(1H-pyrazol-4-yl)-6,7,8,9-tetrahydropyrido[1,2-a]indol-9-yl)acetamide], the IC50 at recombinant human cGAS is 0.0217 µM; in test [1], 5.23 µM.

For `COCCS(=O)(=O)NC1CCc2c(-c3cn[nH]c3)c3ccc(Cl)c(Cl)c3n2C1` (centres unmarked) [Example 117, N-[3,4-Dichloro-10-(1H-pyrazol-4-yl)-6,7,8,9-tetrahydropyrido[1,2-a]indol-7-yl]-2-methoxy-ethanesulfonamide], the IC50 came out at 0.0153 µM at recombinant human cGAS and 2.49 µM in test [1].

On to `CNC(=O)CCS(=O)(=O)NC1CCc2c(-c3cn[nH]c3)c3ccc(Cl)c(Cl)c3n2C1` (centres unmarked) [Example 118, 3-(N-(3,4-Dichloro-10-(1H-pyrazol-4-yl)-6,7,8,9-tetrahydropyrido[1,2-a]indol-7-yl)sulfamoyl)-N-methylpropanamide], for which the values for the IC50 (on recombinant human cGAS; in test [1]) were 0.0165 µM and 3.61 µM, respectively.

In the case of `CC(=O)NCCS(=O)(=O)NC1CCc2c(-c3cn[nH]c3)c3ccc(Cl)c(Cl)c3n2C1` (centres unmarked) [Example 119, N-(2-(N-(3,4-Dichloro-10-(1H-pyrazol-4-yl)-6,7,8,9-tetrahydropyrido[1,2-a]indol-7-yl)sulfamoyl)ethyl)acetamide], the IC50 on recombinant human cGAS came to 0.0186 µM; in test [1], 3.66 µM.

For `O=S(=O)(CCn1cnnn1)NC1CCc2c(-c3cn[nH]c3)c3ccc(Cl)c(Cl)c3n2C1` (centres unmarked) [Example 120, N-(3,4-Dichloro-10-(1H-pyrazol-4-yl)-6,7,8,9-tetrahydropyrido[1,2-a]indol-7-yl)-2-(1H-tetrazol-1-yl)ethane-1-sulfonamide], the IC50 at recombinant human cGAS was determined as 0.0154 µM; in test [1], 2.27 µM.

As for `OC/C=C/CNc1cc(Cl)c(Cl)c2[nH]cc(-c3cn[nH]c3)c12` [Example 121, (E)-4-((6,7-Dichloro-3-(1H-pyrazol-4-yl)-1H-indol-4-yl)amino)but-2-en-1-ol], the IC50 at recombinant human cGAS came out at 0.0652 µM; in test [1], 2.99 µM.

On to `FC(F)CNc1cc(Cl)c(Cl)c2[nH]cc(-c3cn[nH]c3)c12` [Example 122, 6,7-Dichloro-N-(2,2-difluoroethyl)-3-(1H-pyrazol-4-yl)-1H-indol-4-amine], for which the IC50 amounted to 0.0137 µM at recombinant human cGAS and 0.88 µM in test [1].

For the compound `FCCNc1cc(Cl)c(Cl)c2[nH]cc(-c3cn[nH]c3)c12` [Example 123, 6,7-Dichloro-N-(2-fluoroethyl)-3-(1H-pyrazol-4-yl)-1H-indol-4-amine], the IC50 turned out to be 0.00491 µM on recombinant human cGAS and 0.547 µM in test [1].

Take `NCCOCCOCCOCCC(=O)NC1CCc2c(-c3cn[nH]c3)c3ccc(Cl)c(Cl)c3n2C1` (centres unmarked) [Example 124, 3-[2-[2-(2-Aminoethoxy)ethoxy]ethoxy]-N-[3,4-dichloro-10-(1H-pyrazol-4-yl)-6,7,8,9-tetrahydropyrido[1,2-a]indol-7-yl]propanamide]: the IC50 on recombinant human cGAS is 0.0882 µM; in test [1] it was over 10 µM.

In the case of `CC(CO)COc1cc(Cl)c(Cl)c2[nH]cc(-c3cn[nH]c3)c12` (centres unmarked) [Example 125, 3-((6,7-Dichloro-3-(1H-pyrazol-4-yl)-1H-indol-4-yl)oxy)-2-methylpropan-1-ol], the IC50 at recombinant human cGAS is 0.0103 µM; in test [1], 0.426 µM.

With `F[C@H]1C[C@@H](Oc2cc(Cl)c(Cl)c3[nH]cc(-c4cn[nH]c4)c23)C1` [Example 126, 6,7-Dichloro-4-(cis-3-fluorocyclobutoxy)-3-(1H-pyrazol-4-yl)-1H-indole], the IC50 was found to be 0.0358 µM at recombinant human cGAS and 1.45 µM in test [1].

Take `Cc1nnc(-c2[nH]c3c(Cl)c(Cl)ccc3c2-c2cn[nH]c2)o1` [Example 127, 2-(6,7-Dichloro-3-(1H-pyrazol-4-yl)-1H-indol-2-yl)-5-methyl-1,3,4-oxadiazole]: the IC50 worked out at 0.029 µM at recombinant human cGAS and 0.216 µM in test [1].

`FC(F)(F)c1nnc(-c2[nH]c3c(Cl)c(Cl)ccc3c2-c2cn[nH]c2)o1` [Example 128, 2-(6,7-Dichloro-3-(1H-pyrazol-4-yl)-1H-indol-2-yl)-5-(trifluoromethyl)-1,3,4-oxadiazole]: the half-inhibitory concentration (IC50) at recombinant human cGAS was 0.0691 µM; in test [1], over 10 µM.

With `CC(=S)NCc1[nH]c2c(Cl)c(Cl)ccc2c1-c1cn[nH]c1` [Example 129, N-[[6,7-Dichloro-3-(1H-pyrazol-4-yl)-1H-indol-2-yl]methyl]thioacetamide], the IC50 came out at 0.0552 µM on recombinant human cGAS and 0.895 µM in test [1].

Regarding `CC(=O)Nc1cc(Cl)c(Cl)c2[nH]c(CO)c(-c3cn[nH]c3)c12` [Example 130, N-(6,7-Dichloro-2-(hydroxymethyl)-3-(1H-pyrazol-4-yl)-1H-indol-4-yl)acetamide], the figures for the half-inhibitory concentration (IC50) (at recombinant human cGAS; in test [1]) were 0.0711 µM and 0.815 µM, respectively.

As to `O=C(Nc1cc(Cl)c(Cl)c2[nH]c(CO)c(-c3cn[nH]c3)c12)C(F)F` [Example 131, N-(6,7-Dichloro-2-(hydroxymethyl)-3-(1H-pyrazol-4-yl)-1H-indol-4-yl)-2,2-difluoroacetamide], the IC50 at recombinant human cGAS is 0.0131 µM; in test [1], 0.163 µM.
